This note sets out measurements from patent US20070142411A1, “Use of cyclooxygenase-2 selective inhibitors for the treatment of schizophrenic disorders” (priority 2003, published 2007).

In one assay the target is T1, human COX-1 (Homo sapiens, UniProt P23219).
T1 construct: expressed in transfected cells; host or cells: COS cells (stably transfected)
Kind of assay: Inhibition of PGE2 release in COS cells stably transfected with human COX-1. Conditions: COS cells transfected with human COX-1, 30 μM arachidonic acid. Format: cell-based.

Another assay deals with T2, human COX-2 (Homo sapiens, UniProt P35354).
T2 construct: expressed in transfected cells; host or cells: COS cells (stably transfected)
T2 sequence (P35354 18-604): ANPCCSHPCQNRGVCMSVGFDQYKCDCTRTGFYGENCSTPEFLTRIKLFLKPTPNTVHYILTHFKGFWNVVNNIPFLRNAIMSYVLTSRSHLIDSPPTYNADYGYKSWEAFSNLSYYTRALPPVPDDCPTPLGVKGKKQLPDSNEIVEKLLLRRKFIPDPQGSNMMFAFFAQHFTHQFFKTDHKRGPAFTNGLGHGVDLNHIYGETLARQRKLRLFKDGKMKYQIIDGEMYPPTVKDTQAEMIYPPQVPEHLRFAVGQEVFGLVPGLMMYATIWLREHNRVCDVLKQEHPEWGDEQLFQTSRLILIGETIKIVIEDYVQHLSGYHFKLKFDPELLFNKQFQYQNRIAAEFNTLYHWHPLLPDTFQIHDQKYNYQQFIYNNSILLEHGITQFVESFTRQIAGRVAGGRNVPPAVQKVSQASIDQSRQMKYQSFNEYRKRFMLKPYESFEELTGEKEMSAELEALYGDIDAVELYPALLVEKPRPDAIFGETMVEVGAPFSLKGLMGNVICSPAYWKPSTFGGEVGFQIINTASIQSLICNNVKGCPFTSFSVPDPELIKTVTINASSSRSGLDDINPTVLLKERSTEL
Kind of assay: Inhibition of PGE2 release in COS cells stably transfected with human COX-2. The following applies: COS cells transfected with human COX-2, 30 μM arachidonic acid. Format: cell-based.

The target of a further assay is T3, microsomal h-COX2 (Homo sapiens, UniProt P35354).
T3 construct: made in house; host or cells: baculovirus infected SF9 cells (microsomal preparation)
T3 sequence (P35354 18-604): T2 sequence (P35354 18-604)
Kind of assay: Microsomal assay, h-COX2 preparation from baculovirus infected SF9 cells. Format: biochemical. Conditions: stated in text under the microsomal assay; read-out: IC50 values for inhibition of COX-2.

For orientation: IC50 means the concentration that inhibits the measured activity by half.

T1 sequence (P23219 24-599): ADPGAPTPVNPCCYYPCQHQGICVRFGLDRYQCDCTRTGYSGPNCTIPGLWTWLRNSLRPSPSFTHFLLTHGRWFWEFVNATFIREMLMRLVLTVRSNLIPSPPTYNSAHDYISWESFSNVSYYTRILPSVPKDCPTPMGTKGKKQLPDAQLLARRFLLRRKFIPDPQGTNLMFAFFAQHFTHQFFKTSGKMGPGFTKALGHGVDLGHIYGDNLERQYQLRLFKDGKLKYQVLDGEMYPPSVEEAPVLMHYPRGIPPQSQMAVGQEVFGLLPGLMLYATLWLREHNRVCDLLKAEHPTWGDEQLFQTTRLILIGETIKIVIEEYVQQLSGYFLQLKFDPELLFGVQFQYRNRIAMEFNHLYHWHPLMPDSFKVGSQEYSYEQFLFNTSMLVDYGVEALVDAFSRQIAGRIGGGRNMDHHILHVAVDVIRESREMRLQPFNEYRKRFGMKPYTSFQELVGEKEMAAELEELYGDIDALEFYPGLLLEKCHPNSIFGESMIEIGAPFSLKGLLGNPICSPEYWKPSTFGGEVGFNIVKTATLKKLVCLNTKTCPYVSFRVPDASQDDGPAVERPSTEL
Protocol for human COX-1: 24 Hours prior to experiment, COS cells were transferred from the 175 cm^2 flasks in which they were grown, onto 24-well cell culture plates using the following procedure. The incubation medium (Dulbecco's modified eagles medium (DMEM) supplemented with heat-inactivated foetal calf serum (10% v/v), penicillin (100 IU/ml), streptomycin (100 μg/ml) and genebcin (600 μg/ml)) was removed from a flask of confluent cells (1 flask at confluency contains approximately lx107 cells). 10 mI of phosphate buffered saline (PBS) was added to the flask to wash the cells. Having discarded the PBS, cells were then rinsed in 10 ml trypsin for 20 seconds, after which the trypsin was removed and the flask placed in an incubator (37°) for 1-2 minutes unbil cells became detached from the flask. The flask was then removed from the incubator and cells resuspended in 10 ml of fresh incubation medium. The contents of the flask was transferred to a 250 ml sterile container and the volume of incubation medium subsequently made up to 100 ml. […] If more than 1 flask of cells were required, the cells from the individual flasks were combined before being dispensed into the 24-well plates.
Following the overnight incubation, the incubation medium was completely removed from the 24-well cell culture plates and replaced with 250 μl fresh DMEM (37° C.). The test compounds were made up to 250× the required test concentration in DMSO and were added to the wells in a volume of 1 μl. […] Plates were then incubated for a further 15 minutes, after which the incubation medium was removed from each well of the plates and stored at −20° C., prior to determination of prostaglandin E2 (PGE2) levels using enzyme immunoassay. […] The selectivity ratio of inhibition of COX-1 versus COX-2 was calculated by comparing respective IC50 values.
Protocol for microsomal h-COX2: Inhibitory activity against microsomal h-COX2 was assessed against a microsomal preparation from baculovirus infected SF9 cells. An aliquot of microsomal preparation was thawed slowly on ice and a 1/40,000 dilution prepared from it into the assay buffer (sterile water, degassed with argon containing 100 mM HEPES (pH 7.4), 10 mM EDTA (pH7.4), 1 mM phenol, 1 mM reduced glutathione, 20 mg/ml gelatin and 0.001 mM Hematin). Once diluted the enzyme solution was then sonicated for 5 seconds (Branson sonicator, setting 4, 1 cm tip) to ensure a homogeneous suspension. […] Plates were then mixed and incubated at room temperature for 1 hour. Following the incubation period, 40 μl of 0.5 μM arachidonic acid was added to each well to give a final concentration of 0.1 μM. Plates were then mixed and incubated for exactly 10 minutes (room temperature) prior to addition of 25 μl 1M HCl (hydrochloric acid) to each well to stop the reaction. 25 μl of 1M NaOH (sodium hydroxide) was then added to each well to neutralise the solution prior to determination of PGE2 levels by enzyme immunoassay (EIA).

`COc1ccc(-c2nn3ncccc3c2-c2ccc(S(C)(=O)=O)cc2)cc1` [2.2(ii), 3-(4-Methanesulfonyl-phenyl)-2-(4-methoxy-phenyl)-pyrazolo[1,5-b]pyridazine] yielded an IC50 against human COX-1 of 3880 nM.
In the case of `CCOc1ccc(-c2nn3ncccc3c2-c2ccc(S(C)(=O)=O)cc2)cc1` [2.3(ii), 2-(4-Ethoxy-phenyl)-3-(4-methanesulfonyl-phenyl)-pyrazolo[1,5-b]pyridazine], on human COX-2, the IC50 amounted to 3 nM.
On the same count and under the same terms, the same measure for `CS(=O)(=O)c1ccc(-c2c(-c3ccc(F)cc3)nn3nc(S(C)(=O)=O)ccc23)cc1` [2.4(iii), 2-(4-Fluoro-phenyl)-6-methanesulfonyl-3-(4-methanesulfonyl-phenyl)-pyrazolo[1,5-b]pyridazine]: 370 nM.
On to `CCOc1ccc(-c2nn3ncccc3c2-c2ccc(S(N)(=O)=O)cc2)cc1` [2.6(iv), 4-[2-(4-Ethoxy-phenyl)-pyrazolo[1,5-b]pyridazin-3-yl]-benzenesulfonamide], for which the IC50 at human COX-2 worked out at 0.44 nM; against human COX-1, 3830 nM.
For `CS(=O)(=O)c1ccc(-c2cc(C(F)(F)F)nc(Oc3ccc(F)cc3)n2)cc1` [Example 1.1, 2-(4-Fluorophenoxy)-4-[4-(methylsulfonyl)phenyl]-6-(tiifluoromethyl)pyrimidine], the values for the IC50 against human COX-2 and at human COX-1 were below 1 nM and 81300 nM, respectively.
On to `COc1ccc(Oc2nc(-c3ccc(S(C)(=O)=O)cc3)cc(C(F)(F)F)n2)cc1` [Example 1.3], for which the half-inhibitory concentration (IC50) stood at 4 nM against human COX-2 and 2920 nM against human COX-1.
For the molecule `CS(=O)(=O)c1ccc(-c2cc(C(F)(F)F)cc(NC3CCCCC3)n2)cc1` [Example 3.1, N-cyclohexyl-4-(trifluoromethyl)-6-[4-(methylsulfonyl)phenyl]pyridine-2-amine], on microsomal h-COX2, the IC50 was at most 500 nM.
Take `Cc1cc(NCc2cnn(C)c2)nc(-c2ccc(S(C)(=O)=O)cc2)c1` [Example 3.3, 4-methyl-N-[(1-methyl-1H-pyrazol-4-yl)methyl]-6-[4-(methylsulfonyl)phenyl]-2-pyridinamine]: the IC50 on microsomal h-COX2 was at most 500 nM.
